One data set relates to HBV. Nature of the data set: HBV-DNA antiviral assay using HepG2.117 cells. It counts as cell-based, HBV genotype D. The following applies: Hepatitis B virus, HepG2.117, 72 h. In a few lines:
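HepG2.117 cells (Tet-off, genotype D HBV genome) induced by doxycycline withdrawal, treated 3 days at 37 °C with 9 concentrations (4-fold dilution), 2% DMSO final. Intracellular HBV DNA quantified by qPCR against gBlock standard curve; inhibition relative to DMSO control.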

The nature of data set [1]: Cell viability by CellTiter-Glo 2.0 (intracellular ATP content) in HepG2.117 cells. It counts as cell-based. Conditions: human, CellTiter-Glo 2.0, 3 days incubation. A digest of the protocol: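 HepG2.117 cells (stable genotype D HBV, Tet-off) exposed 3 days at 37° C to 9 concentrations (4-fold dilutions) without doxycycline, 2% DMSO final. Viability read by CellTiter-Glo 2.0 luminescence as % of DMSO control; CC50 from non-linear regression dose-response fit.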
(Cellular ATP, detected with luciferase, serves as a proxy for viable cell number.)

Usually EC50 stands for the concentration that produces a half-maximal response. High values mean weaker potency, low ones greater potency. Usually CC50 stands for the concentration at which the toxic effect on the cells reaches its halfway point. Read a low CC50 as greater toxicity to the cells.

With `Cc1cc(C)n(-c2nc3c(c(=O)n2-c2ccc(O[C@H]4C[C@H](O)C4)cc2)C[C@@H](C)N(C(=O)c2ccc(Br)c(C(F)(F)F)c2)C3)n1` [Compound 38, (R)-7-(4-bromo-3-(trifluoromethyl)benzoyl)-2-(3,5-dimethyl-1H-pyrazol-1-yl)-3-(4-((1r,3R)-3-hydroxycyclobutoxy)phenyl)-6-methyl-5,6,7,8-tetrahydropyrido[3,4-d]pyrimidin-4(3H)-one], the EC50 in the data set on HBV was < 0.05 µM. Also, the CC50 at 3 days in data set [1] was > 0.5 µM.

Turning to `Cc1cc(C)n(-c2nc3c(c(=O)n2-c2ccc(O[C@H]4C[C@@H](O)C4)nc2)C[C@@H](C)N(C(=O)c2ccc(Br)c(C(F)(F)F)c2)C3)n1` [Compound 39, (R)-7-(4-bromo-3-(trifluoromethyl)benzoyl)-2-(3,5-dimethyl-1H-pyrazol-1-yl)-3-(6-((1s,3S)-3-hydroxycyclobutoxy)pyridin-3-yl)-6-methyl-5,6,7,8-tetrahydropyrido[3,4-d]pyrimidin-4(3H)-one], the EC50 in the data set with HBV was < 0.05 µM. Further, the CC50 at 3 days in data set [1] was > 0.5 µM.

As for `Cc1cc(C)n(-c2nc3c(c(=O)n2-c2ccc(O[C@H]4C[C@H](O)C4)nc2)C[C@@H](C)N(C(=O)c2ccc(Br)c(C(F)(F)F)c2)C3)n1` [Compound 40, (R)-7-(4-bromo-3-(trifluoromethyl)benzoyl)-2-(3,5-dimethyl-1H-pyrazol-1-yl)-3-(6-((1r,3R)-3-hydroxycyclobutoxy)pyridin-3-yl)-6-methyl-5,6,7,8-tetrahydropyrido[3,4-d]pyrimidin-4(3H)-one], in the data set with HBV, the EC50 is < 0.05 µM. Further, the 50% cytotoxic concentration (CC50) at 3 days in data set [1] is > 0.5 µM.

Take `Cc1cc(C)n(-c2nc3c(c(=O)n2-c2ncc(N)cn2)C[C@@H](C)N(C(=O)c2ccc(Br)c(C(F)(F)F)c2)C3)n1` [Compound 41, (R)-3-(5-aminopyrimidin-2-yl)-7-(4-bromo-3-(trifluoromethyl)benzoyl)-2-(3,5-dimethyl-1H-pyrazol-1-yl)-6-methyl-5,6,7,8-tetrahydropyrido[3,4-d]pyrimidin-4(3H)-one]: the EC50 in the data set on HBV was < 0.05 µM. The CC50 at 3 days in data set [1] is > 0.5 µM.

Regarding `CNc1cnc(-n2c(-n3nc(C)cc3C)nc3c(c2=O)C[C@@H](C)N(C(=O)c2ccc(Br)c(C(F)(F)F)c2)C3)nc1` [Compound 42, (R)-7-(4-bromo-3-(trifluoromethyl)benzoyl)-2-(3,5-dimethyl-1H-pyrazol-1-yl)-6-methyl-3-(5-(methylamino)pyrimidin-2-yl)-5,6,7,8-tetrahydropyrido[3,4-d]pyrimidin-4(3H)-one], the EC50 in the data set on HBV was < 0.05 µM. Also, in data set [1], the CC50 at 3 days is > 0.5 µM.
